Assay results as given in patent US4316011A, “Rhodomycin antibiotics” (Sanraku-Ocean Co., Ltd., priority 1979, dated 1982).
In brackets after ≈: the same amount, converted by molar mass. Like-named read-outs stand apart in the source and are kept apart here.

Tests used:
[1] = test system: murine leukemic L 1210 cells; assay: Growth inhibition of L 1210 cells in culture; assay type: cell-based; details: for IC50: Mus musculus; for growth of murine leukemic cells (in words): murine leukemic L 1210 cells in culture
Description: (§1) In an example, L 1210 cells were inoculated in RPMI (Rosewell Park Memorial Institute) 1640 medium containing 20% calf serum at the cell density of 5×10^4 cells/ml, and the compound in the present invention was simultaneously added to the medium at the concentration of 0.1 and 0.5 μg/ml and incubated at 37° C. in a CO2 incubator. 50% growth inhibition concentration of the compound over controls was determined. L 1210 cells as described above were also inoculated at 5×10^5 cells in RPMI 1640 medium containing 10% calf serum and incubated at 37° C. for 1 to 2 hours in a CO2 incubator. The cells were cultured for 15 min. at 37° C. after the compounds according to the present invention at various concentrations were added, and then ^14 C-uridine (0.05 μCi/ml) or ^14 C-thymidine (0.05 μCi/ml) was added and incubated for further 60 min. at 37° C. After stopping the pulse-labeling by addition of 10% trichloroacetic acid (TCA) solution to the reaction mixture, acid-insoluble materials were precipitated, washed three times with 5 to 10% TCA, and dissolved in a small amount of formic acid. Then, radioactivity was determined, and inhibitory effects on the DNA and RNA biosynthesis were indicated by the 50% inhibition concentration (IC50) of the incorporation of radioactivity over controls.

[2] = test system: DNA synthesis in murine leukemic L 1210 cells; assay: DNA biosynthesis in L 1210 cells (14C-thymidine incorporation); assay type: cell-based; details: Mus musculus, L1210, 15 min with compound then 60 min 14C-thymidine, 37° C.
Description: as §1

[3] = test system: RNA synthesis in murine leukemic L 1210 cells; assay: RNA biosynthesis in L 1210 cells (14C-uridine incorporation); assay type: cell-based; details: for IC50: Mus musculus, L1210, 15 min with compound then 60 min 14C-uridine, 37° C.; for Inhibition ratio DNA/RNA: ratio of IC50 for DNA synthesis to IC50 for RNA synthesis
Description: 50% growth inhibition concentration of the compound over controls was determined. […] The cells were cultured for 15 min. at 37° C. after the compounds according to the present invention at various concentrations were added, and then ^14 C-uridine (0.05 μCi/ml) or ^14 C-thymidine (0.05 μCi/ml) was added and incubated for further 60 min. at 37° C. After stopping the pulse-labeling by addition of 10% trichloroacetic acid (TCA) solution to the reaction mixture, acid-insoluble materials were precipitated, washed three times with 5 to 10% TCA, and dissolved in a small amount of formic acid.

L 1210 leukemia = assay: Antitumor effect on L 1210 leukemia in mice; assay type: in vivo, mice (CDF1); details: i.p., once daily for 10 days from 24 hours after inoculation of 1×10^6 L 1210 cells i.p.
Description: For example, when CDF1 mice weighing 18 to 22 grams were inoculated with 1×10^6 cells of L 1210 cells intraperitoneally and the compound was administered intraperitoneally once daily for 10 days consecutively 24 hours after inoculation, the survival time of mice was over 200% by T/C(%) at optimum dose as shown in the following table.

[4] = Acute toxicity in mice, single intravenous injection; details: mouse, in vivo
[5] = L1210, L 1210 cells, RPMI 1640, 20% calf serum, 5×10^4 cells/ml, 37° C., read-out: IC50 Growth

SMILES | IC50 ([1]; L1210, read-out: IC50 Growth) | growth of murine leukemic cells (in words) [1] | IC50 [2] | RNA synthesis of L 1210 cells (in words) [3] | IC50 [3] | Inhibition ratio DNA/RNA [3] | T/C (survival time) (L 1210 leukemia; opt. dose 2 mg/kg/day) | LD50 [4] | IC50 [1, 5] | T/C (survival time) (L 1210 leukemia; opt. dose 20 mg/kg/day) | T/C (survival time) (L 1210 leukemia; opt. dose 1 mg/kg/day)
CCC1(O)CC(OC2CC(N(C)C)C(OC3CC(O)C(OC4CCC(=O)C(C)O4)C(C)O3)C(C)O2)c2c(O)c3c(c(O)c2C1C(=O)OC)C(=O)c1c(O)ccc(O)c1C3=O (stereo not shown) [ε-Isorhodomycin RDC] | 0.007 µg/mL (≈ 0.0083 µM) | suppressed the growth of murine leukemic cells at extremely low concentration | 1.25 µg/mL (≈ 1.48 µM) | inhibited specifically RNA synthesis of L 1210 cells | 0.11 µg/mL (≈ 0.13 µM) | 11.1 | 235% | 28.2 mg/kg |  |  | 
CCC1(O)CC(OC2CC(N(C)C)C(OC3CC(O)C(OC4CCC(=O)C(C)O4)C(C)O3)C(C)O2)c2c(cc3c(c2O)C(=O)c2c(O)ccc(O)c2C3=O)C1O (stereo not drawn) [β-Pyrromycin RDC] |  |  | 2 µg/mL (≈ 2.55 µM) |  | 1.5 µg/mL (≈ 1.91 µM) | 1.3 |  | 85.5 mg/kg | 1 µg/mL (≈ 1.27 µM) | 202% | 
CCC1(O)CCc2c(O)c3c(c(O)c2C1OC1CC(N(C)C)C(OC2CC(O)C(OC4CCC(=O)C(C)O4)C(C)O2)C(C)O1)C(=O)c1cccc(O)c1C3=O (stereo not shown) [γ-Rhodomycin RDC] |  |  | 0.85 µg/mL (≈ 1.1 µM) |  | 0.28 µg/mL (≈ 0.364 µM) | 3.0 | 209% | 39.8 mg/kg | 0.11 µg/mL (≈ 0.143 µM) |  | 
COc1cccc2c1C(=O)c1c(O)c3c(c(O)c1C2=O)C[C@@](O)(C(=O)CO)C[C@@H]3O[C@H]1C[C@H](N)[C@H](O)[C@H](C)O1 [Adriamycin, reference compound] |  |  |  |  |  |  |  | 14.2 mg/kg |  |  | 286%
CCC1(O)CC(OC2CC(N(C)C)C(OC3CC(O)C(OC4CCC(=O)C(C)O4)C(C)O3)C(C)O2)c2c(O)c3c(c(O)c2C1C(=O)OC)C(=O)c1cccc(O)c1C3=O (stereo not shown) [ε-Rhodomycin RDC] | 0.01 µg/mL (≈ 0.0121 µM) | suppressed the growth of murine leukemic cells at extremely low concentration | 0.7 µg/mL (≈ 0.846 µM) | inhibited specifically RNA synthesis of L 1210 cells | 0.08 µg/mL (≈ 0.0966 µM) | 8.8 | 240% | 32.5 mg/kg |  |  | 
CCC1(O)CC(OC2CC(N(C)C)C(OC3CC(O)C(OC4CCC(=O)C(C)O4)C(C)O3)C(C)O2)c2c(O)c3c(c(O)c2C1O)C(=O)c1cccc(O)c1C3=O (stereo not drawn) [β-Rhodomycin RDC] |  | suppressed the growth of murine leukemic cells at extremely low concentration | 0.57 µg/mL (≈ 0.725 µM) |  | 0.15 µg/mL (≈ 0.191 µM) | 3.8 | 306% | 28 mg/kg | 0.01 µg/mL (≈ 0.0127 µM) |  | 
CCC1(O)CCc2c(O)c3c(c(O)c2C1OC1CC(N(C)C)C(OC2CC(O)C(OC4CCC(O)C(C)O4)C(C)O2)C(C)O1)C(=O)c1cccc(O)c1C3=O (stereo not shown) [γ-Rhodomycin RDRs] |  |  | 0.7 µg/mL (≈ 0.907 µM) |  | 0.3 µg/mL (≈ 0.389 µM) | 2.3 | 203% | 40.6 mg/kg | 0.09 µg/mL (≈ 0.117 µM) |  | 
